11 compounds from ChEMBL document CHEMBL1201862, “PubChem BioAssay data set” (2004) can be followed below.

Test systems include SNB-75; SF-539; OVCAR-4; OVCAR-5; OVCAR-3; NCI-H522; MDA-N; UACC-62; U-251; HCT-15; HCC 2998; HOP-62; 786-0; SF-268; IGROV-1; SN12C; HCT-116; K562; SF-295.
Holding throughout (test): NCI anticancer screen, dose series, 48 h

SMILES strings stand for the structures.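 48-hour exposure; five concentrations; linearly interpolated endpoints. GI50: concentration for 50% inhibition of growth.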 Calls of active or inactive are those of the source. Cut-off read from the data, not from the text of the source: active = GI50 up to about 1.1 µM and inactive = higher.

In the case of `O=C1NC(c2ccccc2Cl)Nc2ccccc21` (centres undefined), the GI50 in the assay on SNB-75 is 13.8 µM (inactive); with SF-539 it was 7.08 µM (inactive); in the assay with OVCAR-4, 27.5 µM (inactive); with OVCAR-5, > 100 µM (inactive); in the assay with OVCAR-3, 7.38 µM (inactive); with NCI-H522, 12.3 µM (inactive). For the same compound, the GI50 was 1.47 µM (inactive) in the assay with MDA-N; 7.14 µM (inactive) in the assay on UACC-62; 10.4 µM (inactive) in the assay on U-251; 3.9 µM in the assay on HCT-15; 11.3 µM (inactive) in the assay with HCC 2998; 35.4 µM (inactive) with HOP-62. Besides, the GI50 in the assay with 786-0 is 28.4 µM (inactive); in the assay with SF-268, 59.7 µM (inactive); in the assay with IGROV-1 it was 22.5 µM (inactive); with SN12C, 23.3 µM (inactive); in the assay with HCT-116, 7.24 µM (inactive); in the assay on K562 it was 3.77 µM (inactive). In the assay with SF-295, the GI50 was 13.9 µM (inactive).
As to `Nc1ccc2c3[nH]c4cc(N)ccc4cc-3nc2c1`, the GI50 is 0.12 µM (active) in the assay on SNB-75; 0.231 µM (active) in the assay with SF-539; 0.283 µM (active) with OVCAR-4; 0.291 µM (active) in the assay with OVCAR-5; 0.349 µM (active) with OVCAR-3; 22.6 µM (inactive) with NCI-H522. Moreover, the GI50 in the assay on MDA-N was 0.194 µM (active); with UACC-62, 0.194 µM (active); in the assay on U-251, 0.156 µM (active); in the assay on HCT-15, 0.266 µM; with HCC 2998 it was 0.09 µM (active); with HOP-62, 0.117 µM (active). Besides, the GI50 in the assay on 786-0 is 0.121 µM (active); with SF-268, 0.232 µM (active); in the assay on IGROV-1, 2.16 µM (inactive); with SN12C, 0.138 µM (active); in the assay on HCT-116 it was 0.0582 µM (active); in the assay with K562, 5.07 µM (inactive). Moreover, the GI50 with SF-295 was 0.265 µM (active).
In the case of `C[C@@]12C[C@@H](c3ccccc3O1)N1CCCSC1=N2`, the GI50 in the assay with SNB-75, in the assay on SF-539, with OVCAR-4, in the assay with OVCAR-5, in the assay with OVCAR-3 and in the assay on NCI-H522 was > 100 µM (inactive) throughout. Besides, the GI50 in the assay with MDA-N was > 100 µM (inactive); in the assay on UACC-62 it was > 100 µM (inactive); in the assay with U-251, > 100 µM (inactive); with HCT-15 it was over 100 µM; in the assay on HCC 2998 it was > 100 µM (inactive); with HOP-62, > 100 µM (inactive). Further, the GI50 with 786-0, in the assay on SF-268, with IGROV-1, in the assay with SN12C, with HCT-116 and with K562 was > 100 µM (inactive) each time. Moreover, in the assay with SF-295, the GI50 was > 100 µM (inactive).
With `COc1ccc(C2SC(=N)Nc3c2c(C)nn3C(=O)c2ccccc2O)cc1` (centres undefined), the GI50 was 0.308 µM (active) in the assay on SNB-75; 0.27 µM (active) in the assay on SF-539; 1.9 µM (inactive) with OVCAR-4; 8.09 µM (inactive) in the assay with OVCAR-5; 1.96 µM (inactive) with OVCAR-3; 3.85 µM (inactive) with NCI-H522. Further, the GI50 in the assay with MDA-N is 0.843 µM (active); in the assay on UACC-62, 0.583 µM (active); in the assay with U-251, 0.9 µM (active); in the assay with HCT-15, 4.58 µM; in the assay with HCC 2998, > 10 µM (inactive); in the assay with HOP-62 it was 2.77 µM (inactive). Further, the GI50 in the assay with 786-0 is 1.31 µM (inactive); with SF-268, 0.885 µM (active); with IGROV-1, 0.497 µM (active); with SN12C, 2.44 µM (inactive); with HCT-116, 0.655 µM (active); in the assay with K562, 0.45 µM (active). In addition, in the assay on SF-295, the GI50 is 3.98 µM (inactive).
On to `Brc1ccc2[nH]cc(-c3csc(-c4c[nH]c5ccc(Br)cc45)n3)c2c1`, for which the GI50 in the assay on SNB-75 is 2.39 µM (inactive); in the assay on SF-539, 1.56 µM (inactive); in the assay with OVCAR-4, 2.26 µM (inactive); in the assay with OVCAR-5, 1.97 µM (inactive); in the assay on OVCAR-3, 2.45 µM (inactive); in the assay with NCI-H522, 1.66 µM (inactive). Moreover, the GI50 is 2.25 µM (inactive) with MDA-N; 1.85 µM (inactive) with UACC-62; 1.82 µM (inactive) in the assay with U-251; 2.02 µM in the assay with HCT-15; 1.86 µM (inactive) in the assay on HCC 2998; 3.25 µM (inactive) with HOP-62. Further, the GI50 in the assay on 786-0 is 1.8 µM (inactive); in the assay on SF-268 it was 2.05 µM (inactive); in the assay on IGROV-1 it was 1.58 µM (inactive); in the assay on SN12C, 2.83 µM (inactive); in the assay on HCT-116, 1.68 µM (inactive); with K562, 1.77 µM (inactive). Further, in the assay on SF-295, the GI50 is 2.48 µM (inactive).
Take `CN1CCN(c2c(Cl)cc(Cl)c3[nH]c4ccccc4c(=O)c23)CC1`: the GI50 is 9.91 µM (inactive) in the assay with SNB-75; 3.94 µM (inactive) in the assay on SF-539; 11.7 µM (inactive) with OVCAR-4; 10.2 µM (inactive) in the assay with OVCAR-5; 10.2 µM (inactive) with OVCAR-3; 2.77 µM (inactive) with NCI-H522. In addition, the GI50 was 8.41 µM (inactive) with MDA-N; 4.68 µM (inactive) in the assay on UACC-62; 5.82 µM (inactive) in the assay with U-251; 3.39 µM with HCT-15; 5.66 µM (inactive) in the assay on HCC 2998; 6.15 µM (inactive) in the assay on HOP-62. For the same compound, the GI50 is 5.75 µM (inactive) in the assay on 786-0; 2.86 µM (inactive) in the assay on SF-268; 4.46 µM (inactive) in the assay on IGROV-1; 6.12 µM (inactive) in the assay on SN12C; 3.21 µM (inactive) in the assay on HCT-116; 3.66 µM (inactive) with K562. Also, the GI50 in the assay with SF-295 was 5.85 µM (inactive).
As to `COC(c1ccc(C(C)(C)C)cc1)(c1ccc(C(C)(C)C)cc1)c1ccc(C(C)(C)C)cc1`, the GI50 in the assay with SNB-75, with SF-539, with OVCAR-4, in the assay on OVCAR-5, in the assay on OVCAR-3 and in the assay on NCI-H522 was > 100 µM (inactive) in each case. Moreover, the GI50 is > 100 µM (inactive) in the assay with MDA-N; > 100 µM (inactive) with UACC-62; > 100 µM (inactive) with U-251; over 100 µM in the assay on HCT-15; > 100 µM (inactive) in the assay with HCC 2998; > 100 µM (inactive) with HOP-62. Besides, the GI50 in the assay on 786-0, with SF-268, in the assay with IGROV-1, in the assay with SN12C, with HCT-116 and in the assay on K562 was > 100 µM (inactive) each time. Further, the GI50 with SF-295 is > 100 µM (inactive).
As for `O=C(CCCl)NN=C1NCCCCN1`, the GI50 in the assay on SNB-75, with SF-539, with OVCAR-4, with OVCAR-5, in the assay on OVCAR-3 and in the assay on NCI-H522 was > 100 µM (inactive) throughout. The GI50 in the assay with MDA-N was > 100 µM (inactive); in the assay on UACC-62 it was > 100 µM (inactive); in the assay on U-251, > 100 µM (inactive); in the assay on HCT-15 it was over 100 µM; in the assay on HCC 2998 it was > 100 µM (inactive); in the assay on HOP-62 it was > 100 µM (inactive). Moreover, the GI50 in the assay on 786-0, in the assay on SF-268, in the assay with IGROV-1, with SN12C, with HCT-116 and with K562 was > 100 µM (inactive) each time. In the assay on SF-295, the GI50 was > 100 µM (inactive).
With `O=C1Oc2ccccc2C(=O)/C1=C/N1C(=O)/C(=C/c2ccc3c(c2)OCO3)SC1=S`, the GI50 in the assay on SNB-75 is 11.1 µM (inactive); with SF-539 it was 11.5 µM (inactive); in the assay with OVCAR-4 it was 20.8 µM (inactive); with OVCAR-5 it was 16.6 µM (inactive); with OVCAR-3, 0.405 µM (active); in the assay with NCI-H522, 15.8 µM (inactive). In addition, the GI50 in the assay with MDA-N is 24.9 µM (inactive); in the assay with UACC-62, 28.2 µM (inactive); in the assay with U-251, 10 µM (inactive); in the assay with HCT-15 it was 15.8 µM; in the assay with HCC 2998, 17.3 µM (inactive); in the assay on HOP-62, 14.6 µM (inactive). Besides, the GI50 was 43.4 µM (inactive) with 786-0; 13.7 µM (inactive) in the assay with SF-268; 13.6 µM (inactive) in the assay on IGROV-1; 18.2 µM (inactive) with SN12C; 33.7 µM (inactive) in the assay with HCT-116; 16.6 µM (inactive) in the assay on K562. The GI50 with SF-295 is 22.9 µM (inactive).
`CC1=C(/C=C/C(C)=C/C=C/C(C)=C/C(=O)OC2CC(n3cc(F)c(=O)[nH]c3=O)OC2CO)C(C)(C)CCC1` (centres undefined): the GI50 is 1.07 µM (active) in the assay on SNB-75; 0.0577 µM (active) with SF-539; 6.01 µM (inactive) with OVCAR-4; 17.3 µM (inactive) in the assay on OVCAR-5; 4.72 µM (inactive) in the assay with OVCAR-3; 1.17 µM (inactive) with NCI-H522. Moreover, the GI50 in the assay with MDA-N was 6.82 µM (inactive); in the assay on UACC-62 it was 0.184 µM (active); in the assay with U-251, 1.2 µM (inactive); in the assay on HCT-15, 4.35 µM; in the assay with HCC 2998, 1.97 µM (inactive); in the assay on HOP-62 it was 0.158 µM (active). In addition, the GI50 in the assay with 786-0 is 0.52 µM (active); in the assay on SF-268, 0.252 µM (active); in the assay on IGROV-1, 7.13 µM (inactive); in the assay with SN12C it was 4.5 µM (inactive); in the assay with HCT-116 it was 0.748 µM (active); in the assay on K562 it was 1.63 µM (inactive). For the same compound, in the assay with SF-295, the GI50 was 0.148 µM (active).
Consider `COC(=O)c1ccccc1/C=C1\Cc2c(ccc3c2CCC3)C1=O`, for which the GI50 in the assay on SNB-75 is 39.1 µM (inactive); in the assay on SF-539, > 100 µM (inactive); in the assay with OVCAR-4, > 100 µM (inactive); with OVCAR-5 it was > 100 µM (inactive); in the assay with OVCAR-3, > 100 µM (inactive); in the assay on NCI-H522, > 100 µM (inactive). The GI50 is > 100 µM (inactive) in the assay on MDA-N; > 100 µM (inactive) with UACC-62; 68.4 µM (inactive) with U-251; over 100 µM with HCT-15; > 100 µM (inactive) in the assay on HCC 2998; 80.5 µM (inactive) in the assay with HOP-62. Also, the GI50 in the assay with 786-0 was 70 µM (inactive); in the assay on SF-268, > 100 µM (inactive); in the assay on IGROV-1 it was > 100 µM (inactive); in the assay with SN12C it was > 100 µM (inactive); in the assay on HCT-116 it was > 100 µM (inactive); with K562, > 100 µM (inactive). Moreover, in the assay on SF-295, the GI50 is > 100 µM (inactive).
